From ChEMBL document CHEMBL1201862, “PubChem BioAssay data set” (2004)
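48-hour exposure; five concentrations; linearly interpolated endpoints. GI50: concentration for 50% inhibition of growth.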 Calls of active or inactive are those of the source. No stated cut-off is given here; in the data, active = GI50 up to about 1.1 µM and inactive = higher.

Columns and labels:
Assay in all cases: inhibition of tumour cell growth, NCI panel, 48 h
[1] = tested on: HCT-116
[2] = tested on: HCT-15
[3] = tested on: SF-268
[4] = tested on: MDA-MB-435
[5] = tested on: SF-539
[6] = tested on: M14
[7] = tested on: PC-3
[8] = tested on: NCI-H226
[9] = tested on: HOP-92
[10] = tested on: CAKI-1
[11] = tested on: OVCAR-8
[12] = tested on: HCC 2998
[13] = tested on: NCI-H522
[14] = tested on: NCI/ADR-RES
[15] = tested on: NCI-H23
[16] = tested on: EKVX
[17] = tested on: Malme-3M
[18] = tested on: SK-MEL-28
[19] = tested on: HL-60
[20] = tested on: A498

CCC(=O)OCc1ccc2oc(=O)c(C(=O)Oc3cncc(Cl)c3)cc2c1
GI50 [1]: 80 µM (inactive)
GI50 [2]: 44 µM
GI50 [3]: > 100 µM (inactive)
GI50 [4]: 70 µM (inactive)
GI50 [5]: > 100 µM (inactive)
GI50 [6]: > 100 µM (inactive)
GI50 [7]: 46 µM (inactive)
GI50 [8]: > 100 µM (inactive)
GI50 [9]: 63.2 µM (inactive)
GI50 [10]: > 100 µM (inactive)
GI50 [11]: > 100 µM (inactive)
GI50 [12]: 35.6 µM (inactive)
GI50 [13]: 29.2 µM (inactive)
GI50 [14]: > 100 µM (inactive)
GI50 [15]: 52.2 µM (inactive)
GI50 [16]: > 100 µM (inactive)
GI50 [17]: 66.7 µM (inactive)
GI50 [18]: > 100 µM (inactive)

COc1ccc(C(=O)/C=C/c2ccc(OCCSCCCCCCCCCCSCCOc3ccc(/C=C/C(=O)c4ccc(OC)cc4)cc3)cc2)cc1
GI50 [1]: > 100 µM (inactive)
GI50 [2]: > 100 µM
GI50 [3]: > 100 µM (inactive)
GI50 [4]: > 100 µM (inactive)
GI50 [5]: > 100 µM (inactive)
GI50 [6]: > 100 µM (inactive)
GI50 [7]: > 100 µM (inactive)
GI50 [8]: > 100 µM (inactive)
GI50 [10]: > 100 µM (inactive)
GI50 [11]: > 100 µM (inactive)
GI50 [12]: > 100 µM (inactive)
GI50 [14]: > 100 µM (inactive)
GI50 [19]: > 100 µM (inactive)
GI50 [16]: > 100 µM (inactive)
GI50 [18]: > 100 µM (inactive)

COC(=O)C1=C2SCc3cccc(c3)CSC3=C(C(=O)OC)SC(=C(S2)S1)S3
GI50 [1]: > 100 µM (inactive)
GI50 [4]: > 100 µM (inactive)
GI50 [6]: 82.6 µM (inactive)
GI50 [7]: 35.5 µM (inactive)
GI50 [8]: > 100 µM (inactive)
GI50 [10]: > 100 µM (inactive)
GI50 [12]: > 100 µM (inactive)
GI50 [19]: 25.9 µM (inactive)
GI50 [20]: > 100 µM (inactive)
GI50 [18]: > 100 µM (inactive)

COc1ccc(C(=O)C(CC2C(=O)CC(C)(C)C(C(=O)C(=O)Nc3c(C)cccc3C)C2=O)c2ccc(OC)cc2)cc1 (centres undefined)
GI50 [1]: > 100 µM (inactive)
GI50 [2]: > 100 µM
GI50 [3]: > 100 µM (inactive)
GI50 [4]: > 100 µM (inactive)
GI50 [5]: > 100 µM (inactive)
GI50 [6]: > 100 µM (inactive)
GI50 [7]: > 100 µM (inactive)
GI50 [8]: > 100 µM (inactive)
GI50 [9]: > 100 µM (inactive)
GI50 [10]: > 100 µM (inactive)
GI50 [11]: > 100 µM (inactive)
GI50 [12]: > 100 µM (inactive)
GI50 [13]: > 100 µM (inactive)
GI50 [14]: > 100 µM (inactive)
GI50 [19]: 96.6 µM (inactive)
GI50 [15]: > 100 µM (inactive)
GI50 [16]: > 100 µM (inactive)
GI50 [18]: > 100 µM (inactive)

C/C(=C\COP(=O)(O)OP(=O)(O)O)CCCOCc1ccccc1
GI50 [1]: > 100 µM (inactive)
GI50 [2]: > 100 µM
GI50 [3]: > 100 µM (inactive)
GI50 [4]: > 100 µM (inactive)
GI50 [5]: > 100 µM (inactive)
GI50 [6]: > 100 µM (inactive)
GI50 [7]: > 100 µM (inactive)
GI50 [8]: > 100 µM (inactive)
GI50 [10]: > 100 µM (inactive)
GI50 [11]: > 100 µM (inactive)
GI50 [13]: > 100 µM (inactive)
GI50 [14]: > 100 µM (inactive)
GI50 [19]: 61.7 µM (inactive)
GI50 [15]: > 100 µM (inactive)
GI50 [16]: > 100 µM (inactive)
GI50 [17]: > 100 µM (inactive)
GI50 [18]: > 100 µM (inactive)

COC(=O)[C@H](C)N1C(=O)N[C@@H](C(C)C)C1=O
GI50 [1]: > 100 µM (inactive)
GI50 [2]: > 100 µM
GI50 [4]: > 100 µM (inactive)
GI50 [5]: > 100 µM (inactive)
GI50 [6]: > 100 µM (inactive)
GI50 [7]: > 100 µM (inactive)
GI50 [8]: > 100 µM (inactive)
GI50 [9]: > 100 µM (inactive)
GI50 [10]: > 100 µM (inactive)
GI50 [11]: > 100 µM (inactive)
GI50 [12]: > 100 µM (inactive)
GI50 [13]: > 100 µM (inactive)
GI50 [14]: > 100 µM (inactive)
GI50 [15]: > 100 µM (inactive)
GI50 [16]: > 100 µM (inactive)
GI50 [17]: > 100 µM (inactive)
GI50 [18]: > 100 µM (inactive)

CC1CCN(C(C)C)P(=S)(Cc2ccccc2)O1 (centres undefined)
GI50 [1]: 59.6 µM (inactive)
GI50 [2]: > 100 µM
GI50 [3]: > 100 µM (inactive)
GI50 [4]: > 100 µM (inactive)
GI50 [5]: > 100 µM (inactive)
GI50 [6]: > 100 µM (inactive)
GI50 [7]: 55 µM (inactive)
GI50 [8]: > 100 µM (inactive)
GI50 [10]: > 100 µM (inactive)
GI50 [11]: > 100 µM (inactive)
GI50 [12]: 83.9 µM (inactive)
GI50 [14]: > 100 µM (inactive)
GI50 [15]: 92.9 µM (inactive)
GI50 [16]: 75.3 µM (inactive)
GI50 [17]: > 100 µM (inactive)
GI50 [18]: 13.6 µM (inactive)

Cc1ccc2[nH]c(=O)c(-c3cnc(O)nn3)c(O)c2c1
GI50 [1]: 32.7 µM (inactive)
GI50 [2]: > 100 µM
GI50 [3]: > 100 µM (inactive)
GI50 [4]: 60.3 µM (inactive)
GI50 [5]: > 100 µM (inactive)
GI50 [6]: > 100 µM (inactive)
GI50 [7]: 15.6 µM (inactive)
GI50 [8]: > 100 µM (inactive)
GI50 [10]: 55.3 µM (inactive)
GI50 [11]: > 100 µM (inactive)
GI50 [14]: > 100 µM (inactive)
GI50 [19]: > 100 µM (inactive)
GI50 [15]: 86.7 µM (inactive)
GI50 [20]: > 100 µM (inactive)
GI50 [16]: 3.4 µM (inactive)
GI50 [17]: > 100 µM (inactive)
GI50 [18]: > 100 µM (inactive)

O=C1c2cn[nH]c2N=C(Nc2ccccc2)C1/N=C/c1ccc([N+](=O)[O-])cc1 (centres undefined)
GI50 [1]: > 10 µM (inactive)
GI50 [3]: > 10 µM (inactive)
GI50 [4]: > 10 µM (inactive)
GI50 [5]: > 10 µM (inactive)
GI50 [6]: > 10 µM (inactive)
GI50 [7]: > 10 µM (inactive)
GI50 [8]: > 10 µM (inactive)
GI50 [11]: > 10 µM (inactive)
GI50 [12]: > 10 µM (inactive)
GI50 [13]: > 10 µM (inactive)
GI50 [19]: > 10 µM (inactive)
GI50 [15]: > 10 µM (inactive)
GI50 [16]: > 10 µM (inactive)
GI50 [17]: > 10 µM (inactive)

CC1C(c2ccccc2O)c2cc3c(cc2OC1N1CCOCC1)OCO3 (centres undefined)
GI50 [1]: 26.4 µM (inactive)
GI50 [2]: 31 µM
GI50 [3]: 43 µM (inactive)
GI50 [4]: 25.4 µM (inactive)
GI50 [5]: 20.5 µM (inactive)
GI50 [6]: 35.4 µM (inactive)
GI50 [7]: 27.1 µM (inactive)
GI50 [8]: 25.3 µM (inactive)
GI50 [9]: 27 µM (inactive)
GI50 [10]: 25.1 µM (inactive)
GI50 [11]: 32.1 µM (inactive)
GI50 [12]: 25 µM (inactive)
GI50 [13]: 12.4 µM (inactive)
GI50 [19]: 20 µM (inactive)
GI50 [15]: 32.4 µM (inactive)
GI50 [20]: 19.2 µM (inactive)
GI50 [16]: 34.3 µM (inactive)
GI50 [17]: 16.9 µM (inactive)
GI50 [18]: 40.6 µM (inactive)

COc1oc(C2C/C(=C/C(C)=C/C(C)=C/C(C)=C/c3ccc([N+](=O)[O-])cc3)CO2)c(C)c(=O)c1C (centres undefined)
GI50 [1]: < 0.01 µM (active)
GI50 [2]: 5.64 µM
GI50 [3]: 10.3 µM (inactive)
GI50 [4]: 3.01 µM (inactive)
GI50 [5]: 12 µM (inactive)
GI50 [6]: 6.03 µM (inactive)
GI50 [7]: 2.02 µM (inactive)
GI50 [8]: 7.28 µM (inactive)
GI50 [9]: 6.95 µM (inactive)
GI50 [10]: 12.5 µM (inactive)
GI50 [11]: 1.52 µM (inactive)
GI50 [12]: 22.4 µM (inactive)
GI50 [13]: 0.344 µM (active)
GI50 [19]: 1.68 µM (inactive)
GI50 [15]: 1.79 µM (inactive)
GI50 [20]: 6.89 µM (inactive)
GI50 [16]: 2.58 µM (inactive)
GI50 [17]: 3.61 µM (inactive)
GI50 [18]: 6.1 µM (inactive)

O=C1NC(N2CCOCC2)=N/C1=C\c1ccc(Cl)cc1
GI50 [1]: > 100 µM (inactive)
GI50 [2]: > 100 µM
GI50 [3]: > 100 µM (inactive)
GI50 [4]: > 100 µM (inactive)
GI50 [5]: > 100 µM (inactive)
GI50 [6]: > 100 µM (inactive)
GI50 [7]: > 100 µM (inactive)
GI50 [8]: > 100 µM (inactive)
GI50 [9]: > 100 µM (inactive)
GI50 [10]: > 100 µM (inactive)
GI50 [11]: > 100 µM (inactive)
GI50 [12]: > 100 µM (inactive)
GI50 [13]: > 100 µM (inactive)
GI50 [14]: > 100 µM (inactive)
GI50 [19]: > 100 µM (inactive)
GI50 [15]: > 100 µM (inactive)
GI50 [16]: > 100 µM (inactive)
GI50 [17]: > 100 µM (inactive)
GI50 [18]: > 100 µM (inactive)
